Columns and labels:
[1] = test system: EAE in C57BL6 mice immunized with MOG35-55; experiment: Example 3: BN201 and DMF combination, progression of chronic EAE; format: in vivo, mouse; conditions: BN201 25 mg/kg i.p. alone (suboptimal), once a day six days per week from day 15
Experimental: Effect in the animal model of MS (i.e., EAE in C57BL6 mice immunized with MOG35-55), similar to Example 2.
Starting on day 15, mice were administered: • dimethyl fumarate (DMF) (group A, 10 mice), • BN201 (group B, 10 mice) • a combination thereof (group C, 10 mice) once a day for six days per week at suboptimal dosages (10 mg/kg for DMF, 25 mg/kg for BN201).
DMF was administered orally with a rigid cannula in a saline vehicle at a volume of 10 mL/kg, while BN201 was administered via i.p. injection in a saline vehicle at a volume of 5 mL/kg. Control mice received vehicle only via both oral and i.p. injection (group D, 10 mice) or nothing at all (group E, 2 mice).
The objective of the study was to evaluate the efficacy and safety of combination therapy with suboptimal doses of BN201 (25 mg/kg) and dimethyl-fumarate (DMF) (10 mg/kg) in the progression of chronic EAE in mice.
During a one week acclimation period starting on day −7, mice were distributed based on body weight stratification into different experimental groups. On day 0, mice were immunized subcutaneously in both hind pads with 150 μg of MOG peptide 35-55 (Spikem, Firenze) emulsified with 50 μg of Mycobacterium tuberculosis (H37Ra strain; Difco, Detroit, MI) in incomplete Freund's adjuvant (IFA). […]

[2] = test system: human neuroblastoma cell line SH-SY5Y; experiment: Neuroprotection against H2O2 oxidative stress, MTT assay; format: cell-based; conditions: 1 hour preincubation at 0.03-40 μM, then H2O2 15 μM 30 minutes
Experimental: The objective of the study was to test the possible synergistic effect of the BN201-monomethylfumarate salt in a neuroprotective assay. Thus, BN201-monomethylfumarate salt obtained as indicated in example 5, was tested for its ability to protect the human neuroblastoma cell line SH-SY5Y against death induced by oxidative stress (i.e., hydrogen peroxide (H202)) using an MTT (3-(4,5-dimethylthiazol-2-yl)-2,5-diphenyltetrazolium bromide) cell proliferation assay.
SH-SY5Y cells were cultivated in 50% Eagle's minimum essential medium (EMEM), 50% Ham's F12 Nutrient Mixture, 10% fetal bovine serum (FBS), 2 mM L-Glu, and 1% penicillin/streptomycin. All of the cell cultures were maintained in a humidified incubator at 5% CO2 and at 37° C. SH-SY5Y cells were preincubated for 1 hour with BN201 alone, monomethyl fumarate alone, or BN201-monomethylfumarate salt at various concentrations (n=5; concentrations: 0.03 μM, 0.1 μM, 0.3 μM, 0.5 μM, 1 μM, 3 μM, 5 μM, 10 μM, 20 μM, 40 μM) and then H2O2 (15 μM) was added to induce stress. Preincubation with sodium pyruvate (10 mM) was used as a positive control. After 30 minutes of H2O2 incubation, the medium was changed and thiazolyl blue tetrazolium bromide (MTT; Sigma Aldrich; stock concentration 10 mg/ml) was added to each well at the final concentration of 0.5 mg/ml. After 2 hours of MTT incubation the cell medium was removed, and cells were resuspended in pure dimethyl sulfoxide (DMSO). Cell viability was determined by reading the absorbance at 570 nm. Each experiment was performed in quintuplicate.

In the case of `CC(C)CN(CC(=O)N(CCCN1CCCC1=O)CC(N)=O)C(=O)CNCCc1ccccc1F` [BN201, [N-(2-(2′-Fluorophenyl)ethyl)glycyl]-[N-(2-methylpropyl)glycyl]-N-[3-(2′-oxopyrrolidinyl)-propyl]glycinamide], the “course of EAE (clinical score) versus placebo” value [1] is reported as “suffered EAE similar to those mice treated with placebo” and the “cell viability as a percentage compared to the control (protection from death induced by oxidative stress)” value [2] is reported as “partially rescued neurons from death induced by oxidative stress”.
